Assay results from paper PMC9767416, “Discovery of small molecule mechanistic target of rapamycin inhibitors as anti-aging and anti-cancer therapeutics” (Frontiers in Aging Neuroscience, 2022).

Legend:
Assay type in all cases: cell-based, human
[1] = test system: glioblastoma T98, A172 and U87 cells; assay: Crystal violet and resazurin assays in further glioblastoma lines; conditions: 0–100 μM, 24 h
Method: (§1) Twenty-four hours before treatment, cells were plated in 96-well plates at densities of 2,850 cells per well for senescent RPE-1 (IR-RPE-1), 3,350 cells per well for proliferating RPE-1 and senescent BJ (DIS-BJ), and 5,000 cells per well for U373, T98, A172, U87, TMZ-U87, and proliferating BJ cells.
(§2) For the crystal violet assay, the cells were washed twice with 150 μL PBS and stained with 30 μL 0.5% (w/v) crystal violet in 20% methanol for 15 mins. Next, the plates were washed five times with ddH2O and left to dry overnight. Crystal violet was solubilized with 75 μL 0.2% Triton X-100 (Sigma) in PBS for 15 mins. The absorbance was read at 595 nm using a microplate reader (Envision, PerkinElmer, Waltham, MA, USA). The absorbance of crystal violet in treated cells was expressed as a percentage of absorbance in untreated cells. Each condition was measured at least in triplicate.
(§3) For the resazurin assay, 200 μL of the culture medium of each well was exchanged for 100 μL of resazurin (stock solution 30 mg/mL; Sigma, St. Louis, MO, USA) diluted 10 times in the culture medium, and the cells were incubated at 37°C for 1–3 h. Reading of fluorescence was done using a microplate reader (PerkinElmer, Waltham, MA, USA). Absolute values of fluorescence were related to the values of untreated cells. Each condition was measured at least in triplicate.

IR-RPE-1 senescent cells = assay: Time-lapse microscopy of IR-senescent RPE-1; conditions: 100 μM, 72 h
Method: (§4) To obtain ionizing radiation (IR)-induced senescent cells, proliferating RPE-1 cells were exposed to a single dose of X-rays (20 Gy) using Pantak HF160 (Gulmay, Surrey, UK) X-ray instrument equipped with Pantak Seifert HF320 generator, MXR-161 X-ray tube (Comet AG, Flamatt, Switzerland), and an aluminum filter using current 1–10 mA. After irradiation, the cells were cultured for an additional 7 days until the development of the senescent phenotype ([Salovska et al., 2022]). To induce docetaxel-induced senescence (DIS), BJ cells were exposed to 5 nM docetaxel for 7 days, as described previously ([Sapega et al., 2018]). To prepare temozolomide (TMZ)-induced senescence, U87 cells were exposed to 100 μM TMZ for 14 days.
For auto-monitoring of cells, Incucyte SX1 Live-Cell Analysis System (Sartorius, Göttingen, Germany), located in an incubator maintained at 37°C under a 5% CO2 atmosphere and 95% humidity, was utilized. The images (1,408 × 1,040 pixels at 1.24 microns/pixel) were acquired using a 10× objective lens in phase contrast, red fluorescence (excitation: 585 ± 20 nm, emission: 635 [625, 705] nm, acquisition time: 100 ms) channels every 60 min during 72 h. The first image was acquired 30 min after adding compounds. The images were processed to measure cell confluence using Incucyte software (version 2022A). […]

RPE-1 cells = assay: Time-lapse microscopy (Incucyte) of proliferating RPE-1; conditions: 0, 10, 50, 80, 100 μM, 72 h
Method: For auto-monitoring of cells, Incucyte SX1 Live-Cell Analysis System (Sartorius, Göttingen, Germany), located in an incubator maintained at 37°C under a 5% CO2 atmosphere and 95% humidity, was utilized. The images (1,408 × 1,040 pixels at 1.24 microns/pixel) were acquired using a 10× objective lens in phase contrast, red fluorescence (excitation: 585 ± 20 nm, emission: 635 [625, 705] nm, acquisition time: 100 ms) channels every 60 min during 72 h. The first image was acquired 30 min after adding compounds. The images were processed to measure cell confluence using Incucyte software (version 2022A). Annexin V – Dy647, Apronex (diluted 1:1,000) was used for apoptotic cell staining.

[2] = test system: IR-induced senescent RPE-1 cells; assay: Crystal violet and resazurin assays in IR-induced senescent RPE-1
Method: as §4, §1, §2
as §3, with “triplicate. […]” for “triplicate.”

Nc1ccc(C(=O)Nc2cccc(-c3c[nH]c4ncccc34)c2)cc1O [Compound 3, N-(3-(1H-pyrrolo[2,3-b]pyridin-3-yl)phenyl)-4-amino-3-hydroxybenzamide]
effect in crystal violet and resazurin assays [1]: significantly affected
kind of effect on senescent cells (IR-RPE-1 senescent cells): rather senomorphic than senolytic effect
effect on cell proliferation (cell confluence, time-lapse) (RPE-1 cells): showed the effect on RPE-1 cell proliferation
selectivity for senescent versus proliferating cells ([2]; IR-RPE-1 vs proliferating RPE-1, crystal violet and resazurin): non-selective manner
sensitivity of senescent cells (crystal violet and resazurin) ([2]; IR-induced senescent RPE-1, 0–100 μM, 24 h): significantly sensitive
